Tests used:
[1] = molecular target: T1, P-glycoprotein (P-gp, ABCB1) (Homo sapiens, UniProt P08183); assay: inside-out vesicular transport inhibition assay with tritiated probe substrate; also Caco-2 bidirectional transport ([…]); format: biochemical
T1 construct: inside-out membrane vesicles prepared from HEK293 cells overexpressing human P-gp

[2] = molecular target: T1, P-glycoprotein (P-gp, ABCB1); assay: inside-out vesicular transport inhibition assay with tritiated probe substrate; format: biochemical

T1 sequence (P08183 whole entry): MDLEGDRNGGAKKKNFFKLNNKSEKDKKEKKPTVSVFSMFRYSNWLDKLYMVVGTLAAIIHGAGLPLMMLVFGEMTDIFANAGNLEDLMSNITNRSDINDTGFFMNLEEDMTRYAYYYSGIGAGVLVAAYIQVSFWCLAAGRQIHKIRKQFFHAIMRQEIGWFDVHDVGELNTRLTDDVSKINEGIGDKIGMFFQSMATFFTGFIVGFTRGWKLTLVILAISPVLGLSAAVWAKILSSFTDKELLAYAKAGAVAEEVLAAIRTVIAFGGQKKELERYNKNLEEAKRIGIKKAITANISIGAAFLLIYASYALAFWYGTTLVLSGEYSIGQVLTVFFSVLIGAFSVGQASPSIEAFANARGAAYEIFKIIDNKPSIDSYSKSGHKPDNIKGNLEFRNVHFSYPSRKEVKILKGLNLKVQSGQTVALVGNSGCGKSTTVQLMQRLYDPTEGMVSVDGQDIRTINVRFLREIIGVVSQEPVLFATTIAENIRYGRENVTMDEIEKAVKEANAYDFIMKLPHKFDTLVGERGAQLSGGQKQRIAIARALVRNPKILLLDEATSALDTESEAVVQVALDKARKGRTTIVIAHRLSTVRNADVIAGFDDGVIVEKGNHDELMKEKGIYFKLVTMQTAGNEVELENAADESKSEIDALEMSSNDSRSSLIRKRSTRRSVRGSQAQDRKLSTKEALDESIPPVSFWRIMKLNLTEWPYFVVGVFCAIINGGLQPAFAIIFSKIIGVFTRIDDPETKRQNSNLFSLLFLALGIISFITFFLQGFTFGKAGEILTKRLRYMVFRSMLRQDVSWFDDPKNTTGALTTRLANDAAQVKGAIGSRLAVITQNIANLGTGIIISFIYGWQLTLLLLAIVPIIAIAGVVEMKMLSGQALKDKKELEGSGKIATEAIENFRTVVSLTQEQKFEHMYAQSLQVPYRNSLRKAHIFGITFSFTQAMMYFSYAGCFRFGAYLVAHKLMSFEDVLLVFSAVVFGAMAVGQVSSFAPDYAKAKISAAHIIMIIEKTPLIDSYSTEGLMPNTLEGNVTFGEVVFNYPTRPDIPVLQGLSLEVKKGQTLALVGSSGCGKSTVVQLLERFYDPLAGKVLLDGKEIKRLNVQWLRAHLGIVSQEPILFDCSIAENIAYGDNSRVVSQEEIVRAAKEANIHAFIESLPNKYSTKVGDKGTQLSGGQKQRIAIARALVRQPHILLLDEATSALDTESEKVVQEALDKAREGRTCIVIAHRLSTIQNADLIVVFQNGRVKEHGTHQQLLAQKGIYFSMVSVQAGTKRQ

Compound	IC50 [1]	IC50 [2]
CC#CC(=O)N1CCC[C@H]1c1nc(-c2ccc(C(=O)Nc3ccccn3)cc2)c2c(N)nccn12 [acalabrutinib]	57 µM	–
C=CC(=O)N1CCC[C@@H](n2nc(-c3ccc(Oc4ccccc4)cc3)c3c(N)ncnc32)C1 [ibrutinib]	–	6 µM
